For experiment [1], the system named is green algae (Selenastrum capricornutum). Conditions: cited from earlier work.
For experiment [2], the system named is Gloeocapsa sp. and Oscillatoria sp. As to the kind of experiment: Algal efficacy on dry paint film (Modified ASTM 5589), pool Gs + Os. The experiment is classed as cell-based. The method, then:
(§1) A single biocide or blend of biocides was post added into white acrylic latex paint free of biocides to give a maximum total active ingredient/s concentration tested. This paint was then diluted with a biocide free acrylic latex paint to give targeted concentrations for the testing. Depending on the type of biocide blends tested, the total biocides concentrations varies from 400 to 3300 ppm. After biocides addition or dilution, each sample was hand mixed for at least a minute until uniformity was achieved. Each of the paint samples as well as a control sample (containing no biocide) were used to prepare films on black plastic-vinyl chloride/acetate copolymer panels (Leneta Company, Mahwah, N.J.) using a 0.0762 mm (3 mil) bird bar applicator. The panels were thoroughly dried for at least 2 days avoiding direct exposure to sunlight. Square discs (0.5 inch^2; 1.27 cm^2) were cut out from each panel and were used as the substrate for fungal and algal efficacy tests. This sample size allowed for an agar border when the sample disc was placed into the well of the test plate. Each sample was tested in duplicate.
(§2) The appropriate media (BOLD'S 3N for Chlorophytes, BG-11 for Cyanobacteria, and PDA for fungi) were used to support microbial growth. The test plates were maintained at room temp (25° C.-26° C.), in a cycled light-dark environment, for four weeks for algae. Plates for fungal challenge tests were maintained at 30° C. for four weeks. At the end of the incubation period the samples were scored for percent area covered by visible microbial growth.
Algal efficacy was tested as follows (Modified ASTM 5589).
ASTM 5589 is a standard accelerated test method for determining resistance of various coatings (including paints) to algal defacement. To accommodate for high-throughput screening, this method was scaled down from petri plates to 6-well plates. A single coupon was placed with a pair of sterile forceps at the center of the agar plug (on top) with the painted surface facing upwards. Algal inoculums were prepared by mixing equal concentrations (approximately 1×10^6 cfu/ml) and equal volumes (depending on number of samples to be inoculated) of like growing organisms.
In this synergy study, three pool of mixed algae were prepared as the test inoculum, Gloeocapsa sp. and Oscillatoria sp. a mix of cyanobacteria grown on BG-11 media; Chlorella sp., Chlorella kessleri, and Nostoc commune are unicellular chlorphytes that were mixed and grown on Bold media; Trentepohlia aurea, Tretepohlia odorata, and Calotrix parientina are filamentous algae that were mixed and grown on Bold media.
Each well that contained a tested coupon was inoculated with 400 μl of organism mixture (approximately 1×10^6 cfu/ml) making sure that the whole surface (paint film as well as the agar surrounding it) was evenly covered. The plates were incubated at room temp (25° C.-26° C.) with cyclic exposure to light (OTT-Lite model # OTL4012P, 40 Watt, 26 KLumen) and dark phases, for a period of four weeks. The total area covered was evaluated at the end of each week according to percent area covered in 5% increments.
(§3) The SI is calculated based on F. C. Kull et.
(§4) SI value of <1 in the formula indicates a synergism of the blended biocides exists.
(§5) NE=no end point at the concentration tested that will meet the percent inhibition criteria set in each SI calculation.

Experiment [3] relates to Alternaria alternata mixed with Aureobasidium pullulans. As to the kind of experiment: Fungal efficacy on dry paint film (Modified ASTM 5590), pool Aa + Ap. The experiment is classed as cell-based. The method, then: as §1, §2
(§6) Fungal efficacy was tested as follows (Modified ASTM 5590).
ASTM 5590 is a standard accelerated test method for determining resistance of various coatings (including paints) to fungal defacement. To accommodate for high-throughput screening, this method was scaled down from petri plates to 6-well plates. To set up the test, an agar plug was placed at the bottom of each well of the sterile 6-well plate. A single coupon was placed with a pair of sterile forceps at the center of the agar plug (on top) with the painted surface facing upwards. Fungal inoculums were prepared by mixing equal concentrations (approximately 1×10^6 cfu/ml) and equal volumes (depending on number of samples to be tested) of like growing organisms. For this synergy study, three pools of mixed fungi were prepared as the test inoculum. Cladosporium herbarum was mixed with Trichoderma viride, Aspergillus niger was mixed with Penicillium funiculosum and Alternaria alternata was mixed with Aureobasidium pullulans. […] The total percent area covered was evaluated and recorded at the end of each week and recorded in increments of 5%.
(§7) The SI is calculated based on F. C. […]

Experiment [4] relates to Aspergillus niger mixed with Penicillium funiculosum. The experiment can be described thus: Fungal efficacy on dry paint film (Modified ASTM 5590), pool An + Pf. The experiment is classed as cell-based. Conditions: for % Inhibition, An + Pf: dry film, four weeks. The method, then: as §1, §2, §6
ASTM 5590 is a standard accelerated test method for determining resistance of various coatings (including paints) to fungal defacement. To accommodate for high-throughput screening, this method was scaled down from petri plates to 6-well plates. To set up the test, an agar plug was placed at the bottom of each well of the sterile 6-well plate. A single coupon was placed with a pair of sterile forceps at the center of the agar plug (on top) with the painted surface facing upwards. Fungal inoculums were prepared by mixing equal concentrations (approximately 1×10^6 cfu/ml) and equal volumes (depending on number of samples to be tested) of like growing organisms. For this synergy study, three pools of mixed fungi were prepared as the test inoculum. Cladosporium herbarum was mixed with Trichoderma viride, Aspergillus niger was mixed with Penicillium funiculosum and Alternaria alternata was mixed with Aureobasidium pullulans. Each well was inoculated with 400 microliter of organism mixture (approximately 1×10^6 cfu/ml) making sure that the whole surface (paint film as well as the agar surrounding it) was evenly covered. The plates were incubated at 30° C. in presence of moisture, for a period of four weeks. The total percent area covered was evaluated and recorded at the end of each week and recorded in increments of 5%.
as §3, §4, §5

Experiment [5] concerns Cladosporium herbarum mixed with Trichoderma viride. The experiment can be described thus: Fungal efficacy on dry paint film (Modified ASTM 5590), pool TV + Ch. The experiment is classed as cell-based. The method, then: as §1, §2, §6
ASTM 5590 is a standard accelerated test method for determining resistance of various coatings (including paints) to fungal defacement. To accommodate for high-throughput screening, this method was scaled down from petri plates to 6-well plates. […] The total percent area covered was evaluated and recorded at the end of each week and recorded in increments of 5%.
as §7

Where [6] appears, read: Total conc 1500 ppm (synergy table).
The mark [7] stands for this setting: Total conc 750 ppm (synergy table).
[8] abbreviates: Conc. 750 ppm in paint, dry film, four weeks.
[9] abbreviates: Conc. 1500 ppm in paint, dry film, four weeks.
[10] abbreviates: Conc. 2500 ppm in paint, dry film, four weeks.
[11] abbreviates: Total conc 2500 ppm (synergy table).

Consider three compounds from patent publication US8524636B2 (Dow Global Technologies LLC, priority 2010, dated 2013).

Where two headings read alike, the source gives them in different places.

For the compound `O=C(O)CNCP(=O)(O)O` [Glyphosate, N-(phosphonomethyl)glycine], the “EbC50 (median effective concentration for biomass)” value was 485 mg/L in experiment [1] (72 hr) and 13.8 mg/L in experiment [1] (7 day). Besides, the “ErC50 (median effective concentration for growth rate)” value in experiment [1] (72 hr) was 460 mg/L.

With `CCCCNC(=O)OCC#CI` [IPBC, 3-iodo-2-propynyl-butylcarbamate, reference compound], the “% Inhibition, Gs + Os” value in experiment [2] (setting [6]) is 82.5%. Also, the “% inhibition, Aa + Ap” value in experiment [3] (setting [7]) is 90%. Besides, the “% inhibition, AnPf” value in experiment [4] (setting [7]) is recorded as 65%. In addition, the “% Inhibition, TV + Ch” value in experiment [5] (setting [6]) is 75%.

On to Zinc Glyphosate, for which the “% Inhibition, Gs + Os” value in experiment [2] (setting [8]) was 15%; in experiment [2] (setting [9]), 72.5%; in experiment [2] (setting [10]) it was 90%; in experiment [2] (setting [6]), 72.5%. Besides, the “% inhibition, Aa + Ap” value in experiment [3] (setting [9]) worked out at 47.5%; in experiment [3] (setting [10]), 70%; in experiment [3] (setting [11]), 70%. Further, the entries for the “% Inhibition, An + Pf” value in experiment [4] (Conc. 750 ppm in paint), in experiment [4] (Conc. 1500 ppm in paint) and in experiment [4] (Conc. 2500 ppm in paint) were 20%, 27.5% and 30%, respectively. Moreover, the “% inhibition, AnPf” value in experiment [4] (setting [11]) came to 30%. Besides, the “% Inhibition, TV + Ch” value was found to be 50% in experiment [5] (setting [8]) and 90% in experiment [5] (setting [10]).
